The source of these data is US9309187B2, “EP2 receptor agonists” (TAKEDA GMBH, priority 2012, dated 2016).

The assay deals with plasma TNFα after i.v. LPS. Description: In vivo assay: LPS-induced TNFα release in rats. The arrangement: species or system Sprague Dawley rats. To be noted: Rattus norvegicus; p.o. 1 h prior to i.v. LPS 20 μg/kg; plasma TNFα 1 h after LPS. The protocol:
In Vivo Assay: LPS-Induced TNFα Release in Rats
Intravenously administration of lipopolysaccharide (LPS) causes a systemic inflammation characterised by release of pro-inflammatory cytokines, e.g. tumor necrosis factor alpha (TNFα). Selective EP2 agonists are administered per oral 1 h prior intravenously LPS challenge in rats. The anti-inflammatory activity of the selective EP2 agonists is assessed based on TNFα levels in blood plasma 1 h after LPS exposure.
Male Sprague Dawley rats weighing 250-300 g were used. Rats were delivered 1 week prior to the experiments and had free access to water and food.
The test compound was mixed with 1.33% polyethylenglycol 400 (PEG400, Merck, Darmstadt, Germany) and subsequently suspended in 2% methocel solution (hypromellose, Sigma, Steinheim, Germany) containing Antifoam C Emulsion (Sigma, Steinheim, Germany, 0.1 mL/15 mL) using a mixing device (ULTRA-TURRAX T8 basic, VDI12, VWR International GmbH). The aimed doses were prepared by dilution series from the stock suspension, which was prepared for the administration of the highest dose in each experiment.
The administered volume of the compound suspension is 10 mL/kg. On day of the experiment the rat body weights were documented to calculate the volume to be administered. LPS challenged control animals received drug-free vehicle solution as placebo. Test compounds and vehicle were administered by oral gavage 1 h prior to LPS challenge.
LPS (from Escherichia coli 055:B5, Sigma, Steinheim, Germany) was solubilised in 0.9% sterile NaCl solution (B. Braun Melsungen AG, Melsungen, Germany) containing 0.1% hydroxylamine (Sigma, Steinheim, Germany). LPS is intravenously (i.v.) injected at a dose of 20 μg/kg (1 mL/kg b.w.) 1 h after compound or vehicle administration.
One hour after LPS-challenge, the animals were sacrificed by inhalative isofluran anaesthesia and subsequently cervical dislocation. Heparinised blood was obtained by heart puncture. Blood was centrifuged (21,000×g, 4° C., 10 min), and plasma samples were kept frozen at −20° C. until determination of TNFα levels by ELISA. TNFα was measured with a commercially available ELISA-Kit (Quantikine®, Rat TNFα/TNFSF1A, R&D Systems, Minneapolis, USA).
The compound effect on TNFα release was calculated individually in percent (%) for each compound treated animal in relation to the mean TNFα level of the vehicle treated LPS-challenged control group: % effect=(Y−K)/K*100 • with defining: • Y=plasma TNFα concentration of the compound treated animal • K=mean plasma TNFα concentration of the vehicle treated group
Statistical analysis was performed on the primary TNFα concentrations by One-Way ANOVA and Dunnett's Multiple Comparison test vs. vehicle treated control group.

`O=C(O)/C=C/c1cccc(NC(=O)c2cc(-c3ccccc3)cc3ccccc23)c1` [Example 1, (2E)-3-(3-{[(3-phenylnaphthalen-1-yl)carbonyl]amino}phenyl)prop-2-enoic acid] returned an ED50 of 0.1 to 3 mg/kg.

`O=C(O)/C=C/c1ccc(Cl)c(NC(=O)c2cc(-c3ccccc3)cc3ccccc23)c1` [Example 3, (2E)-3-(4-chloro-3-{[(3-phenylnaphthalen-1-yl)carbonyl]amino}phenyl)prop-2-enoic acid] registered an ED50 of 0.1 to 3 mg/kg.

With `O=C(O)/C=C/c1ccc(F)c(NC(=O)c2cc(-c3cccc(F)c3)cc3ccccc23)c1` [Example 10, (2E)-3-{3-[({3-[3-fluorophenyl]naphthalen-1-yl}carbonyl)amino]-4fluorophenyl}prop-2-enoic acid], the ED50 lay within 0.1 to 3 mg/kg.

In the case of `O=C(O)/C=C/c1ccc(F)c(NC(=O)c2cc(-c3ccccc3F)cc3ccccc23)c1` [Example 9, (2E)-3-{3-[({3-[2-fluorophenyl]naphthalen-1-yl}carbonyl)amino]-4fluorophenyl}prop-2-enoic acid], the ED50 is 0.1 to 3 mg/kg.

With `O=C(O)/C=C/c1ccc(F)c(NC(=O)c2cc(-c3ccccc3)cc3ccccc23)c1` [Example 2, (2E)-3-(4-fluoro-3-{[(3-phenylnaphthalen-1-yl)carbonyl]amino}phenyl)prop-2-enoic acid], the ED50 fell in the range of 0.1 to 3 mg/kg.

What is called ED50 is the dose at which the effect has come halfway, by size or by number of responders. Low values mean an effect at a small dose, high ones a need for a large dose.
